Counter-ions that a name gives are not always drawn. ± gives the standard error.
Tests used:
[1] = test system: 621-102 (TSC2-deficient); test: relative viability vs DMSO; higher = less cytotoxic; conditions: serum: 10% FBS, 72 h
[2] = test system: 621-103 (TSC2-rescued); test: as above; conditions: serum: 10% FBS, 72 h
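Also: immortalized renal angiomyolipoma cells stably carrying empty vector or TSC2, dosed in 384-well plates in DMEM, viability normalized to vehicle-treated wells within each plate.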

Compound	relative viability ([1]; 0.0001 µM) [%]	relative viability ([1]; 0.001 µM) [%]	relative viability ([1]; 0.01 µM) [%]	relative viability ([1]; 0.1 µM) [%]	relative viability ([1]; 1 µM) [%]	relative viability ([1]; 10 µM) [%]	relative viability ([2]; 0.0001 µM) [%]	relative viability ([2]; 0.001 µM) [%]	relative viability ([2]; 0.01 µM) [%]	relative viability ([2]; 0.1 µM) [%]	relative viability ([2]; 1 µM) [%]	relative viability ([2]; 10 µM) [%]
CN(C)C/C=C/C(=O)Nc1cc2c(Nc3ccc(F)c(Cl)c3)ncnc2cc1O[C@H]1CCOC1 [BIBW2992 )Tovok)]	115 ± 3	108.3 ± 0.98	110 ± 1.6	108 ± 3.2	91.85 ± 0.61	13.8 ± 1.6	98.7 ± 5.2	106.2 ± 1	103 ± 6	100.3 ± 0.78	78.3 ± 2.9	7.915 ± 0.042
COc1ncc(-c2ccc3nccc(-c4ccnnc4)c3c2)cc1NS(=O)(=O)c1ccc(F)cc1F	80.7 ± 11	68.1 ± 1.7	59.2 ± 0.65	38.9 ± 1.5	23.3 ± 2	26.3 ± 1.8	107 ± 3.9	101.89 ± 0.069	91 ± 4.4	61.4 ± 2.5	47.565 ± 0.012	41 ± 2.4
COc1ccc(-n2nc(C(N)=O)c3c2C(=O)N(c2ccc(N4CCCCC4=O)cc2)CC3)cc1 [Apixaban]	107.9 ± 0.95	121 ± 0.2	112 ± 4.2	108 ± 3.1	91.79 ± 0.34	111 ± 2.4	117 ± 4.5	116.3 ± 0.34	115 ± 1.5	110 ± 3.2	104 ± 3.3	105 ± 4.6
CC(=O)SCC(Cc1ccccc1)C(=O)NCC(=O)OCc1ccccc1 (stereo not drawn) [Racecadotril]	134 ± 1.7	120 ± 3.8	122 ± 1.8	107 ± 3.7	114 ± 5.8	113 ± 1.3	104 ± 4.4	95.5 ± 2	101 ± 4.2	101 ± 3.7	106 ± 1.2	99.3 ± 2.2
Cc1cc2c(s1)Nc1ccccc1N=C2N1CCN(C)CC1 [Olanzapine (Zyprexa)]	108 ± 1.3	105 ± 3.1	110 ± 2.6	115 ± 5.1	108 ± 1.7	105 ± 4.6	103 ± 3	100.7 ± 0.71	102 ± 4	104.8 ± 1	96.8 ± 2.5	95.1 ± 1.2
Cn1c(=O)c(F)c(Nc2ccc(I)cc2F)c2c(=O)n(C[C@@H](O)CO)cnc21 [TAK-733]	101 ± 5.3	107 ± 2.2	101 ± 4.8	95.22 ± 0.047	67.4 ± 2.4	54.3 ± 0.28	97.8 ± 5.4	84.4 ± 2.9	83.5 ± 6	84.4 ± 7	60.7 ± 6.7	51.7 ± 4.3
Cn1cc(-c2ccc3nnc(C(F)(F)c4ccc5ncccc5c4)n3n2)cn1	101 ± 1.6	100.8 ± 0.26	99.2 ± 1.3	95.7 ± 1.9	96.8 ± 4.5	98.19 ± 0.64	102 ± 1.7	101 ± 1.4	100.6 ± 0.28	100.3 ± 0.23	100.3 ± 0.95	98.25 ± 0.26
CN(C)CCCN1c2ccccc2Sc2ccc(Cl)cc21 [Chlorpromazine HCl]	88.27 ± 0.79	87.9 ± 6.9	93.3 ± 8.6	101 ± 8.9	101 ± 7.6	81.9 ± 3.2	97.7 ± 3.2	92.6 ± 5.6	95.67 ± 0.89	102 ± 6.1	91.8 ± 4.6	63.7 ± 4.6
c1ccc2c(CC3=NCCN3)cccc2c1 [Naphazoline HCl]	122 ± 2.4	109 ± 2.6	117 ± 3	111 ± 3.6	106.3 ± 0.15	112 ± 1.5	103 ± 2	105.1 ± 0.24	103 ± 1.7	99.2 ± 5.5	104 ± 0.12	101.3 ± 0.62
Cc1cc(Nc2nc(N[C@@H](C)c3ccc(F)cc3)c(C#N)cc2F)n[nH]1 [AZ 960]	99.6 ± 4	107 ± 3.6	103 ± 4.5	104 ± 2.7	47.1 ± 3.6	44.9 ± 4.3	99.9 ± 3.1	101 ± 1.2	94.7 ± 2.2	92.44 ± 0.84	62.82 ± 0.16	16.3 ± 0.85
NCCCC(O)(P(=O)(O)O)P(=O)(O)O [Alendronate Sodium]	99.4 ± 1.2	103 ± 1.3	103 ± 2.7	99.1 ± 5.1	99 ± 3.1	104.6 ± 0.43	98.7 ± 3.1	102 ± 1.5	101 ± 4.5	105.54 ± 0.079	104 ± 3.5	105 ± 2.9
O=C(O[C@H]1C[C@H]2CC[C@@H](C1)[N+]21CCCC1)C(O)(c1ccccc1)c1ccccc1 [Trospium chloride (Sanctura)]	116 ± 2.6	99.2 ± 1.8	110 ± 5.9	95.4 ± 6.1	112 ± 5	110 ± 3.5	82.71 ± 0.81	91.5 ± 2.9	93.15 ± 0.86	102 ± 3.1	98.6 ± 5.3	92.1 ± 4.1
COc1ccc(-c2nc3cc(C4=NNC(=O)CC4C)ccc3[nH]2)cc1 (stereo not drawn) [Pimobendan (Vetmedin)]	105.47 ± 0.018	106 ± 0.73	103 ± 2.5	108 ± 3.9	101 ± 2.5	87.99 ± 0.68	104 ± 2.3	101.7 ± 0.57	102.2 ± 0.15	100 ± 3.2	99.3 ± 3.6	84.13 ± 0.39
Cc1ccc(NC(=O)c2ccc(CN3CCN(C)CC3)cc2)cc1Nc1nccc(-c2cccnc2)n1 [Imatinib Mesylate]	99 ± 2.9	113 ± 3.7	108 ± 3.2	111 ± 3.6	107 ± 3.1	94.78 ± 0.7	95.2 ± 5.4	90.4 ± 3.4	101.6 ± 0.44	97.9 ± 1.8	98.3 ± 4.3	94.8 ± 4.8
O=C1c2c(O)ccc(O)c2C(=O)c2c(NCCNCCO)ccc(NCCNCCO)c21 [Mitoxantrone]	79.5 ± 1.5	70.5 ± 3.2	65.8 ± 4.4	33.21 ± 0.054	5.07 ± 0.86	2.13 ± 0.16	94.9 ± 2.3	87.32 ± 0.1	90.41 ± 0.1	36.95 ± 0.31	8.71 ± 0.34	3.19 ± 0.27
N#CCNC(=O)c1ccc(-c2ccnc(Nc3ccc(N4CCOCC4)cc3)n2)cc1 [Cyt387]	101 ± 5.9	109 ± 4.2	110 ± 1	113 ± 1.4	104 ± 0.75	73.3 ± 2.2	115 ± 0.87	105.2 ± 0.63	110 ± 1.1	110.2 ± 0.81	106 ± 3.2	83.38 ± 0.51
Nc1ccc(S(N)(=O)=O)cc1 [Sulfanilamide]	94.3 ± 1.1	108 ± 5.2	97.7 ± 2.6	99 ± 1.8	99.8 ± 2.5	92.9 ± 1.2	102 ± 3.3	102 ± 0.77	104 ± 1.8	106 ± 1.9	101 ± 2.4	96.1 ± 2.9
CCCCC(=O)N(Cc1ccc(-c2ccccc2-c2nnn[nH]2)cc1)[C@H](C(=O)O)C(C)C [Valsartan]	85.7 ± 5	113 ± 4.4	117.3 ± 1	117 ± 5.9	107 ± 1.1	104 ± 1.3	101 ± 3.4	118.1 ± 0.48	115 ± 1.9	114 ± 6.2	110.2 ± 0.73	115 ± 2.4
O=C(NC[C@H]1CN(c2ccc(N3CCOCC3=O)cc2)C(=O)O1)c1ccc(Cl)s1 [Rivaroxaban (Xarelto)]	101 ± 5.5	104.4 ± 0.87	122.4 ± 0.29	117 ± 6.5	116 ± 1.6	120 ± 3.2	105 ± 2.4	116 ± 3.4	121 ± 1.5	117 ± 2.9	112 ± 1.1	104 ± 3.9

Reference: the supplement of paper PMC8960247
